{"source": "ChEMBL document CHEMBL1141151", "about": "“High-affinity epidermal growth factor receptor (EGFR) irreversible inhibitors with diminished chemical reactivities as positron emission tomography (PET)-imaging agent candidates of EGFR overexpressing tumors” (J Med Chem, 2005)", "key": {"[1]": {"biological_target": "T1, Epidermal growth factor receptor (Homo sapiens, UniProt P00533)", "T1 sequence (P00533 whole entry)": "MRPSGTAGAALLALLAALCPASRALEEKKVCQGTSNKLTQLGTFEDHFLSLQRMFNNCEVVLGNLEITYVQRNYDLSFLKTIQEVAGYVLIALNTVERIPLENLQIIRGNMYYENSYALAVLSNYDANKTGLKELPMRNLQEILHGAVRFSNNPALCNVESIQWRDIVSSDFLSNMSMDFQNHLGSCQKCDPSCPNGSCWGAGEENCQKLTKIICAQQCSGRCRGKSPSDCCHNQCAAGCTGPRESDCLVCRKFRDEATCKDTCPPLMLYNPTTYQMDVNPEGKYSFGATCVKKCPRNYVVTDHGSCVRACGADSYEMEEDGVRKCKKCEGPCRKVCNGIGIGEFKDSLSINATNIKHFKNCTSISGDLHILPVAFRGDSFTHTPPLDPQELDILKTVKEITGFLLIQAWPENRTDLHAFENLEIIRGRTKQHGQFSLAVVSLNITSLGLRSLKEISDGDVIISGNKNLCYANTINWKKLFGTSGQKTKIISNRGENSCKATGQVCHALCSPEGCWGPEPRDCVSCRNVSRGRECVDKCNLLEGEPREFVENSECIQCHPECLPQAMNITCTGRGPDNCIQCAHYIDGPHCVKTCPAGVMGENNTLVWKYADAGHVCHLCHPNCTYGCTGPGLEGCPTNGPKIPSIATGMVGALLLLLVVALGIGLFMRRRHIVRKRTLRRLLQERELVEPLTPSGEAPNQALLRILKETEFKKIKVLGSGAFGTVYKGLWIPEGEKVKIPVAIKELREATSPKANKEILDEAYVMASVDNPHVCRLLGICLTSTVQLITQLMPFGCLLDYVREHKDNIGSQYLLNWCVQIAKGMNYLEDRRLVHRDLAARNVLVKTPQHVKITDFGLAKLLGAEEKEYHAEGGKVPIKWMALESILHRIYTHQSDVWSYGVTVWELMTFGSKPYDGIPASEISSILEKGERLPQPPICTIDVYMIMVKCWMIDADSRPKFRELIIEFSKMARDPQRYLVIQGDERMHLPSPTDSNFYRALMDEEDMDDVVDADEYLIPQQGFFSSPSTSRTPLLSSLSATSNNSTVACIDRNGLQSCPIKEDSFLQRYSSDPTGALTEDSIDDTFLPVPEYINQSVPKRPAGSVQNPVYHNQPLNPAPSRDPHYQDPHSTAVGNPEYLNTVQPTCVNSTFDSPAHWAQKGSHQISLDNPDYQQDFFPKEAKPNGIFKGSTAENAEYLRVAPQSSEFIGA", "test": "(§1) Inhibition of EGF Receptor autophosphorylation in A431 cell lysate"}, "[2]": {"biological_target": "T1, Epidermal growth factor receptor", "test": "as §1", "remark": "listed apart in the source"}, "[3]": {"biological_target": "T1, Epidermal growth factor receptor", "test": "as §1", "remark": "listed apart in the source"}, "[4]": {"biological_target": "Platelet-derived growth factor receptor (Homo sapiens, UniProt P09619+P16234)", "test": "Inhibition of human PDGFR kinase in intact NIHPDGFR cells", "assay_type": "cell-based"}, "[5]": {"biological_target": "T1, Epidermal growth factor receptor", "details": "a-431", "description": "Inhibition of EGF Receptor autophosphorylation in A431 cell lysate; Range = 10000-50000 nM"}, "[6]": {"biological_target": "T2, Receptor tyrosine-protein kinase erbB-2 (Homo sapiens, UniProt P04626)", "T2 sequence (P04626 whole entry)": "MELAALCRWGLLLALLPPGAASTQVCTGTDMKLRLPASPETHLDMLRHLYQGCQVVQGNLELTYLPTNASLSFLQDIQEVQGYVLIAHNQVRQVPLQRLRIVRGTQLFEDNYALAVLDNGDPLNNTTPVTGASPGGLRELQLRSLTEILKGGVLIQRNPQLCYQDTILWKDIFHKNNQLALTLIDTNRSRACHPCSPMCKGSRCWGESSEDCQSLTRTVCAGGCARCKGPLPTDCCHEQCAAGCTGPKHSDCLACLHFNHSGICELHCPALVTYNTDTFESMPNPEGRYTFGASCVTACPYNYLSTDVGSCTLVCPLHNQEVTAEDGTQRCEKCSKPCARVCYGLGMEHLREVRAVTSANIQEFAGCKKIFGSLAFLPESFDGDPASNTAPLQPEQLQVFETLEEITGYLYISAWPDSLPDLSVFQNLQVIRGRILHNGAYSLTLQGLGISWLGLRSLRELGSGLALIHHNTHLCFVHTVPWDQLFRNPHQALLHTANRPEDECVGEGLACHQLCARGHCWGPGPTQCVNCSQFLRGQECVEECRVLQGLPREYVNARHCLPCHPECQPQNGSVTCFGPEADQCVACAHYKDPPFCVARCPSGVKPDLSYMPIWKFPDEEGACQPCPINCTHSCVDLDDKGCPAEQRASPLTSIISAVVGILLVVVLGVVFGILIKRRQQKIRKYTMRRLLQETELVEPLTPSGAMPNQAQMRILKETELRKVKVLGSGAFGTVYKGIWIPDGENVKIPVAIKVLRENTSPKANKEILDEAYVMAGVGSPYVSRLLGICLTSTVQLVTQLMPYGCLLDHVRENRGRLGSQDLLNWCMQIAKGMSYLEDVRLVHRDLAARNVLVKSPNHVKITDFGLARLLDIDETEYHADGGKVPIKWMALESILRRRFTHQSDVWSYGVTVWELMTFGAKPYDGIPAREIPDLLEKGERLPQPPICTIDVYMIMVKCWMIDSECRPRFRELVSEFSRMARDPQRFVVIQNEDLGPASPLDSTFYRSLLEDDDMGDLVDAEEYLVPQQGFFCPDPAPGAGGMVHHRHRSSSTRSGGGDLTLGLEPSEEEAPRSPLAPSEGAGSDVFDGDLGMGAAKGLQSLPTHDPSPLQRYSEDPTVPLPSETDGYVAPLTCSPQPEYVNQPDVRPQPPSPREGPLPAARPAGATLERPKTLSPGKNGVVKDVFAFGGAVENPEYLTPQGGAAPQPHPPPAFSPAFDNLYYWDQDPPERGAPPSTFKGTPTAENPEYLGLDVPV", "test": "Inhibition of HER2 kinase in intact CSH12 cells", "assay_type": "cell-based"}, "[7]": {"biological_target": "T2, Receptor tyrosine-protein kinase erbB-2", "test": "Inhibition of HER2 kinase in intact CSH12 cells; Range = 25-50 nM", "assay_type": "cell-based"}}}
{"compound": "CN(C)C/C=C/C(=O)Nc1ccc2ncnc(Nc3cccc(I)c3)c2c1", "values": [{"measurement": "IC50", "setting": "[1]", "result": "< 5", "unit": "nM"}, {"measurement": "IC50", "setting": "[2]", "result": "< 5", "unit": "nM"}, {"measurement": "IC50", "setting": "[3]", "result": 0.94, "unit": "nM"}]}
{"compound": "CN(C)C/C=C/C(=O)Nc1ccc2ncnc(Nc3cc(Cl)c(Cl)cc3F)c2c1", "values": [{"measurement": "IC50", "setting": "[4]", "result": "> 1000", "unit": "nM"}]}
{"compound": "COCC(=O)Nc1ccc2ncnc(Nc3cccc(I)c3)c2c1", "values": [{"measurement": "IC50", "setting": "[1]", "result": 50000, "unit": "nM"}, {"measurement": "IC50", "setting": "[3]", "result": 150, "unit": "nM"}]}
{"compound": "COCC(=O)Nc1ccc2ncnc(Nc3cc(Cl)c(Cl)cc3F)c2c1", "values": [{"measurement": "IC50", "setting": "[5]", "result": 50000, "unit": "nM"}, {"measurement": "IC50", "setting": "[4]", "result": "> 1000", "unit": "nM"}, {"measurement": "IC50", "setting": "[6]", "result": "> 500", "unit": "nM"}, {"measurement": "IC50", "setting": "[3]", "result": 252, "unit": "nM"}]}
{"compound": "O=C(CCl)Nc1ccc2ncnc(Nc3cc(Cl)c(Cl)cc3F)c2c1", "values": [{"measurement": "IC50", "setting": "[7]", "result": 50, "unit": "nM"}, {"measurement": "IC50", "setting": "[4]", "result": "> 1000", "unit": "nM"}, {"measurement": "IC50", "setting": "[3]", "result": 0.07, "unit": "nM"}]}
{"compound": "C=CC(=O)Nc1cc2c(Nc3cccc(Br)c3)ncnc2cc1N1CCN(C)CC1", "values": [{"measurement": "IC50", "setting": "[1]", "result": "> 500", "unit": "nM"}]}
{"compound": "C=CC(=O)Nc1cc2c(Nc3cc(Cl)c(Cl)cc3F)ncnc2cc1N1CCN(C)CC1", "values": [{"measurement": "IC50", "setting": "[1]", "result": "> 500", "unit": "nM"}, {"measurement": "IC50", "setting": "[2]", "result": 250, "unit": "nM"}, {"measurement": "IC50", "setting": "[3]", "result": 6000, "unit": "nM"}]}
{"compound": "COc1cc2ncnc(Nc3cc(Cl)c(Cl)cc3F)c2cc1OC", "values": [{"measurement": "IC50", "setting": "[3]", "result": 0.208, "unit": "nM"}]}
